This note sets out measurements from patent publication US9273058B2 (BRISTOL-MYERS SQUIBB COMPANY, priority 2013, dated 2016).

Test [1] deals with CK1δ (Homo sapiens, UniProt P48730). Briefly: CK1δ kinase assay (Caliper LabChip electrophoretic separation of fluoresceinated peptide substrate and product). It is filed as biochemical. Particulars: 200 pM CK1δ, 50 μM ATP, 1.5 μM peptide, 22 hours at room temperature. The procedure, abridged:
(§1)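 Incubated for twenty-two hours at ambient temperature, then quenched with EDTA and analyzed by electrophoretic separation of unphosphorylated and phosphorylated peptide.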

The target of test [2] is CK1ε (Homo sapiens, UniProt P49674). Briefly: CK1ε kinase assay (Caliper LabChip electrophoretic separation of fluoresceinated peptide substrate and product). It is filed as biochemical. The settings on record: 200 pM CK1ε, 50 μM ATP, 1.5 μM peptide, 22 hours at room temperature. Put shortly: as §1

Where two headings read alike, the source gives them in different places.

Sequence of CK1δ (P48730 whole entry): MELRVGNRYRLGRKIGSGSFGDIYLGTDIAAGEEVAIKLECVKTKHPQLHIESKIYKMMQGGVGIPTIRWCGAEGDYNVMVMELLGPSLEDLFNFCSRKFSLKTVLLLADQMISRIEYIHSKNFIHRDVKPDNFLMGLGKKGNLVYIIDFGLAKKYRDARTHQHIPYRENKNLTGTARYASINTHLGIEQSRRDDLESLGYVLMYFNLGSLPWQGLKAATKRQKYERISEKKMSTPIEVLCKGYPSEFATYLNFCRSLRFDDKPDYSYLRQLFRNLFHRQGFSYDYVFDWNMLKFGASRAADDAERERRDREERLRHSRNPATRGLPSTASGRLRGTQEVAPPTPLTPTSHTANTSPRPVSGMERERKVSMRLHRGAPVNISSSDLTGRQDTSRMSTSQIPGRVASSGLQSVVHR
Sequence of CK1ε (P49674 whole entry): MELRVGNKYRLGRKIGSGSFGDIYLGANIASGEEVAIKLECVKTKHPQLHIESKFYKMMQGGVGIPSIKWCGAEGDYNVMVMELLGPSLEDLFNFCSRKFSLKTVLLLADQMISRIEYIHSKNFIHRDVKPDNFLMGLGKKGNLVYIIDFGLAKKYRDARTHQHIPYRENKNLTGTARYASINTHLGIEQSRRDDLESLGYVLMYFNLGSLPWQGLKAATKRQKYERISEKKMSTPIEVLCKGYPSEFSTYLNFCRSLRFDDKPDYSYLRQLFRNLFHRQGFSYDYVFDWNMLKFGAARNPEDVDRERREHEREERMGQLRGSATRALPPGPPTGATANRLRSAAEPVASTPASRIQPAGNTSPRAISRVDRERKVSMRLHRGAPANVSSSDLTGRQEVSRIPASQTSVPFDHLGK

With `NC(=O)c1c(-c2cccc(F)c2)nn2c1CN(C(=O)Nc1c(Cl)cccc1C(F)(F)F)CC2` [Compound 65, N^5-(2-Chloro-6-(trifluoromethyl)phenyl)-2-(3-fluorophenyl)-6,7-dihydropyrazolo[1,5-a]pyrazine-3,5(4H)-dicarboxamide], the IC50 in test [1] (read-out: CK1δ IC50 range) and in test [2] (read-out: CK1ε IC50 range) was 100 to 2000 nM throughout.
Turning to `COc1cc(NC(=O)N2CCn3nc(-c4cccc(F)c4)c(C(N)=O)c3C2)ncn1` [Compound 75, 2-(3-Fluorophenyl)-N^5-(6-methoxypyrimidin-4-yl)-6,7-dihydropyrazolo[1,5-a]pyrazine-3,5(4H)-dicarboxamide], the IC50 in test [1] (read-out: CK1δ IC50 range) and in test [2] (read-out: CK1ε IC50 range) was 10 to 100 nM in each case.
In the case of `Cc1ccc(NC(=O)N2CCn3nc(-c4cccc(F)c4)c(C(N)=O)c3C2)nn1` [Compound 83, 2-(3-Fluorophenyl)-N^5-(6-methylpyridazin-3-yl)-6,7-dihydropyrazolo[1,5-a]pyrazine-3,5(4H)-dicarboxamide], the figures for the IC50 in test [1] (read-out: CK1δ IC50 range) and in test [2] (read-out: CK1ε IC50 range) were 100 to 2000 nM and 10 to 100 nM, respectively.
On the same counts, the results for `NC(=O)c1c(-c2cccc(F)c2)nn2c1CN(C(=O)Nc1ccc(O)nc1)CC2` [Compound 88, 2-(3-Fluorophenyl)-N^5-(6-hydroxypyridin-3-yl)-6,7-dihydropyrazolo[1,5-a]pyrazine-3,5(4H)-dicarboxamide] are 10 to 100 nM and 10 to 100 nM.
`NC(=O)c1c(-c2cccc(F)c2)nn2c1CN(C(=O)Nc1cccnn1)CC2` [Compound 91, 2-(3-Fluorophenyl)-N^5-(pyridazin-3-yl)-6,7-dihydropyrazolo[1,5-a]pyrazine-3,5(4H)-dicarboxamide]: the IC50 lay within 10 to 100 nM in test [1] (read-out: CK1δ IC50 range) and 100 to 2000 nM in test [2] (read-out: CK1ε IC50 range).
`NC(=O)c1c(-c2cccc(F)c2)nn2c1CN(C(=O)Nc1ccncc1)CC2` [Compound 92, 2-(3-Fluorophenyl)-N^5-(pyridin-4-yl)-6,7-dihydropyrazolo[1,5-a]pyrazine-3,5(4H)-dicarboxamide]: the IC50 in test [1] (read-out: CK1δ) was 446 nM; in test [1] (read-out: CK1δ IC50 range), 100 to 2000 nM; in test [2] (read-out: CK1ε IC50 range) it was 100 to 2000 nM.
As to `CS(=O)(=O)c1cccc(NC(=O)N2CCn3nc(-c4cccc(F)c4)c(C(N)=O)c3C2)c1` [Compound 93, 2-(3-Fluorophenyl)-N^5-(3-(methylsulfonyl)phenyl)-6,7-dihydropyrazolo[1,5-a]pyrazine-3,5(4H)-dicarboxamide], the IC50 in test [1] (read-out: CK1δ IC50 range) and in test [2] (read-out: CK1ε IC50 range) was 0.01 to 10 nM throughout.
As for `Cn1nccc1NC(=O)N1CCn2nc(-c3cccc(F)c3)c(C(N)=O)c2C1` [Compound 96, 2-(3-Fluorophenyl)-N^5-(1-methyl-1H-pyrazol-5-yl)-6,7-dihydropyrazolo[1,5-a]pyrazine-3,5(4H)-dicarboxamide], the IC50 in test [1] (read-out: CK1δ IC50 range) and in test [2] (read-out: CK1ε IC50 range) was 10 to 100 nM in each case.
On to `NC(=O)c1c(-c2cccc(F)c2)nn2c1CN(C(=O)NC1CCN(CCC(F)(F)F)CC1)CC2` [Compound 103, 2-(3-Fluorophenyl)-N^5-(1-(3,3,3-trifluoropropyl)piperidin-4-yl)-6,7-dihydropyrazolo[1,5-a]pyrazine-3,5(4H)-dicarboxamide], for which the results for the IC50 in test [1] (read-out: CK1δ), in test [2] (read-out: CK1ε) and in test [2] (read-out: CK1ε IC50 range) were 70.6 nM, 541 nM and 100 to 2000 nM, respectively.
Consider `CC(C)(C)NC(=O)N1CCn2nc(-c3ccc(F)c(Cl)c3)c(C(N)=O)c2C1` [Compound 104], for which the IC50 is 0.7 nM in test [1] (read-out: CK1δ), 0.01 to 10 nM in test [1] (read-out: CK1δ IC50 range), 1.3 nM in test [2] (read-out: CK1ε) and 0.01 to 10 nM in test [2] (read-out: CK1ε IC50 range).
For `CC(C)(C)NC(=O)N1CCn2nc(-c3ccc(F)c(F)c3)c(C(N)=O)c2C1` [Compound 106, N^5-(tert-Butyl)-2-(3,4-difluorophenyl)-6,7-dihydropyrazolo[1,5-a] pyrazine-3,5(4H)-dicarboxamide], the IC50 was 8.7 nM in test [1] (read-out: CK1δ), 0.01 to 10 nM in test [1] (read-out: CK1δ IC50 range), 29.3 nM in test [2] (read-out: CK1ε) and 10 to 100 nM in test [2] (read-out: CK1ε IC50 range).
Turning to `CC(C)(C)NC(=O)N1CCn2nc(-c3ccccc3F)c(C(N)=O)c2C1` [Compound 107, N^5-(tert-Butyl)-2-(2-fluorophenyl)-6,7-dihydropyrazolo[1,5-a] pyrazine-3,5(4H)-dicarboxamide], the IC50 is 105 nM in test [1] (read-out: CK1δ), 10 to 100 nM in test [1] (read-out: CK1δ IC50 range), 400 nM in test [2] (read-out: CK1ε) and 100 to 2000 nM in test [2] (read-out: CK1ε IC50 range).
As to `CC(C)(C)NC(=O)N1CCn2nc(-c3cccc(Cl)c3)c(C(N)=O)c2C1` [Compound 108, N^5-(tert-Butyl)-2-(3-chlorophenyl)-6,7-dihydropyrazolo[1,5-a] pyrazine-3,5(4H)-dicarboxamide], the IC50 in test [1] (read-out: CK1δ) was 0.9 nM; in test [1] (read-out: CK1δ IC50 range), 0.01 to 10 nM; in test [2] (read-out: CK1ε), 2.4 nM; in test [2] (read-out: CK1ε IC50 range), 0.01 to 10 nM.
With `CC(C)(C)NC(=O)N1CCn2nc(-c3cccc(C(F)(F)F)c3)c(C(N)=O)c2C1` [Compound 110, N^5-(tert-Butyl)-2-(3-(trifluoromethyl)phenyl)-6,7-dihydropyrazolo[1,5-a] pyrazine-3,5(4H)-dicarboxamide], the IC50 in test [1] (read-out: CK1δ) is 83.9 nM; in test [1] (read-out: CK1δ IC50 range), 10 to 100 nM; in test [2] (read-out: CK1ε), 156 nM; in test [2] (read-out: CK1ε IC50 range) it was 100 to 2000 nM.
As to `CC(C)(C)NC(=O)N1CCn2nc(-c3cccnc3)c(C(N)=O)c2C1` [Compound 111, N^5-(tert-Butyl)-2-(pyridin-3-yl)-6,7-dihydropyrazolo[1,5-a]pyrazine-3,5(4H)-dicarboxamide], the IC50 in test [1] (read-out: CK1δ IC50 range) and in test [2] (read-out: CK1ε IC50 range) was 100 to 2000 nM throughout.
With `CC(C)(C)NC(=O)N1CCn2nc(-c3ccnc(F)c3)c(C(N)=O)c2C1` [Compound 112, N^5-(tert-Butyl)-2-(2-fluoropyridin-4-yl)-6,7-dihydropyrazolo[1,5-a] pyrazine-3,5(4H)-dicarboxamide], the IC50 in test [1] (read-out: CK1δ IC50 range) is 10 to 100 nM; in test [2] (read-out: CK1ε IC50 range), 100 to 2000 nM.
In the case of `CC(C)(C)NC(=O)N1CCn2nc(-c3cccc(C#N)c3)c(C(N)=O)c2C1` [Compound 114, N^5-(tert-Butyl)-2-(3-cyanophenyl)-6,7-dihydropyrazolo[1,5-a] pyrazine-3,5(4H)-dicarboxamide], the IC50 was 12.5 nM in test [1] (read-out: CK1δ), 10 to 100 nM in test [1] (read-out: CK1δ IC50 range), 43 nM in test [2] (read-out: CK1ε) and 10 to 100 nM in test [2] (read-out: CK1ε IC50 range).
As for `CC(C)(C)NC(=O)N1CCn2nc(-c3cc(F)cc(C#N)c3)c(C(N)=O)c2C1` [Compound 115, N^5-(tert-Butyl)-2-(3-cyano-5-fluorophenyl)-6,7-dihydropyrazolo[1,5-a] pyrazine-3,5(4H)-dicarboxamide], the IC50 in test [1] (read-out: CK1δ IC50 range) was 10 to 100 nM; in test [2] (read-out: CK1ε IC50 range), 100 to 2000 nM.
Turning to `CC(C)(C)NC(=O)N1CCn2nc(-c3ccccc3)c(C(N)=O)c2C1` [Compound 116, N^5-(tert-Butyl)-2-phenyl-6,7-dihydropyrazolo[1,5-a] pyrazine-3,5(4H)-dicarboxamide], the IC50 in test [1] (read-out: CK1δ) is 18.2 nM; in test [1] (read-out: CK1δ IC50 range), 10 to 100 nM; in test [2] (read-out: CK1ε), 79.8 nM; in test [2] (read-out: CK1ε IC50 range), 10 to 100 nM.
In the case of `CC(C)(C)NC(=O)N1CCn2nc(-c3cccc(NS(C)(=O)=O)c3)c(C(N)=O)c2C1` [Compound 118, N^5-(tert-Butyl)-2-(3-(methylsulfonamido)phenyl)-6,7-dihydropyrazolol[1,5-a] pyrazine-3,5(4H)-dicarboxamide], the IC50 in test [1] (read-out: CK1δ IC50 range) and in test [2] (read-out: CK1ε IC50 range) was 100 to 2000 nM throughout.
As for `CC(C)(C)NC(=O)N1CCn2nc(-c3cccc(N)c3)c(C(N)=O)c2C1` [Compound 120, 2-(3-Aminophenyl)-N^5-(tert-butyl)-6,7-dihydropyrazolo [1,5-a]pyrazine-3,5(4H)-dicarboxamide], the IC50 in test [1] (read-out: CK1δ IC50 range) was 10 to 100 nM; in test [2] (read-out: CK1ε IC50 range), 100 to 2000 nM.
